Laboratory results as given in patent publication US20250171438A1 (Agios Pharmaceuticals, Inc., priority 2022, published 2025).

Molecular target: T1, human PAH with the R408W mutation (Homo sapiens, UniProt P00439, R408W)
T1 construct: expressed in transfected cells
T1 sequence (P00439 1-452 R408W): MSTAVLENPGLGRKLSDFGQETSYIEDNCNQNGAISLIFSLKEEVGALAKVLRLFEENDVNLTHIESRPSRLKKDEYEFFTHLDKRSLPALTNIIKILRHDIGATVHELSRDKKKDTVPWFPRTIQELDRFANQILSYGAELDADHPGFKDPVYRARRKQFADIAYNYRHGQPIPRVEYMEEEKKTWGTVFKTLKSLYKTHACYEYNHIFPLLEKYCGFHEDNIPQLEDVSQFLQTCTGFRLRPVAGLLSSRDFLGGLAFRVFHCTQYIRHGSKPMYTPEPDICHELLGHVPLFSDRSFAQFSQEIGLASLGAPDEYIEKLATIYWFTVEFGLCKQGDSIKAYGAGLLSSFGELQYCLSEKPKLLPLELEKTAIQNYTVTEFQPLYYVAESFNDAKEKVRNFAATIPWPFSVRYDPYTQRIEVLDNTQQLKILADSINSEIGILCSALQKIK
Assay: Cell Based Phenylalanine Flux Assay
Settings: A375 cells expressing human R408W PAH; 24 hrs compound incubation; 13C-Tyrosine by LC-MS; average where tested multiple times; read-out: AC50

Compound | AC50 [nM]
Cc1c(C(=O)N2CCc3[nH]cnc3[C@H]2c2nc3c(F)cccc3s2)cnn1-c1ccccn1 [Example 1933, (S)-(4-(4-fluorobenzo[d]thiazol-2-yl)-6,7-dihydro-1H-imidazo[4,5-c]pyridin-5(4H)-yl)(5-methyl-1-(pyridin-2-yl)-1H-pyrazol-4-yl)methanone] | 1000 to 5000
Cc1c(C(=O)N2CCc3[nH]cnc3[C@@H]2c2nc3c(F)cccc3s2)cnn1-c1ccccn1 [Example 1934, (R)-(4-(4-fluorobenzo[d]thiazol-2-yl)-6,7-dihydro-1H-imidazo[4,5-c]pyridin-5(4H)-yl)(5-methyl-1-(pyridin-2-yl)-1H-pyrazol-4-yl)methanone] | > 5000
CC(C)(O)c1nc(Cl)c(C(=O)N2CCc3[nH]cnc3[C@H]2c2nc3c(F)cccc3s2)o1 [Example 1935, (S)-(4-chloro-2-(2-hydroxypropan-2-yl)oxazol-5-yl)(4-(4-fluorobenzo[d]thiazol-2-yl)-6,7-dihydro-1H-imidazo[4,5-c]pyridin-5(4H)-yl)methanone] | < 500
CC(C)(O)c1nc(Cl)c(C(=O)N2CCc3[nH]cnc3[C@@H]2c2nc3c(F)cccc3s2)o1 [Example 1936, (R)-(4-chloro-2-(2-hydroxypropan-2-yl)oxazol-5-yl)(4-(4-fluorobenzo[d]thiazol-2-yl)-6,7-dihydro-1H-imidazo[4,5-c]pyridin-5(4H)-yl)methanone] | 1000 to 5000
Cn1nc(Cl)nc1C(=O)N1CCc2[nH]cnc2[C@H]1c1nc2ccccc2s1 [Example 1937] | 500 to 1000
Cn1nc(Cl)nc1C(=O)N1CCc2[nH]cnc2[C@@H]1c1nc2ccccc2s1 [Example 1938, (R)-(4-(benzo[d]thiazol-2-yl)-6,7-dihydro-1H-imidazo[4,5-c]pyridin-5(4H)-yl)(3-chloro-1-methyl-1H-1,2,4-triazol-5-yl)methanone] | 1000 to 5000
O=C(c1nnc(-c2cnn(S(=O)(=O)C3CC3)c2)o1)N1CCc2[nH]cnc2[C@H]1c1nc2ccccc2s1 [Example 1939] | 500 to 1000
O=C(c1nnc(-c2cnn(S(=O)(=O)C3CC3)c2)o1)N1CCc2[nH]cnc2[C@@H]1c1nc2ccccc2s1 [Example 1940, (R)-(4-(benzo[d]thiazol-2-yl)-6,7-dihydro-1H-imidazo[4,5-c]pyridin-5(4H)-yl)(5-(1-(cyclopropylsulfonyl)-1H-pyrazol-4-yl)-1,3,4-oxadiazol-2-yl)methanone] | 1000 to 5000
Cc1n[nH]cc1-c1nnc(C(=O)N2CCc3[nH]cnc3[C@H]2c2nc3ccccc3s2)o1 [Example 1941] | < 500
Cc1n[nH]cc1-c1nnc(C(=O)N2CCc3[nH]cnc3[C@@H]2c2nc3ccccc3s2)o1 [Example 1942, (R)-(4-(benzo[d]thiazol-2-yl)-6,7-dihydro-1H-imidazo[4,5-c]pyridin-5(4H)-yl)(5-(3-methyl-1H-pyrazol-4-yl)-1,3,4-oxadiazol-2-yl)methanone] | 1000 to 5000
Cc1cc(-c2nnc(C(=O)N3CCc4[nH]cnc4[C@@H]3c3nc4ccccc4s3)o2)nn1C [Example 1943, (R)-(4-(benzo[d]thiazol-2-yl)-6,7-dihydro-1H-imidazo[4,5-c]pyridin-5(4H)-yl)(5-(1,5-dimethyl-1H-pyrazol-3-yl)-1,3,4-oxadiazol-2-yl)methanone] | 1000 to 5000
Cc1cc(-c2nnc(C(=O)N3CCc4[nH]cnc4[C@H]3c3nc4ccccc4s3)o2)nn1C [Example 1944] | 500 to 1000
Cn1nccc1-c1nnc(C(=O)N2CCc3[nH]cnc3[C@H]2c2nc3ccccc3s2)o1 [Example 1945] | < 500
Cn1nccc1-c1nnc(C(=O)N2CCc3[nH]cnc3[C@@H]2c2nc3ccccc3s2)o1 [Example 1946, (R)-(4-(benzo[d]thiazol-2-yl)-6,7-dihydro-1H-imidazo[4,5-c]pyridin-5(4H)-yl)(5-(1-methyl-1H-pyrazol-5-yl)-1,3,4-oxadiazol-2-yl)methanone] | 1000 to 5000
Cc1cnn(C)c1-c1nnc(C(=O)N2CCc3[nH]cnc3[C@H]2c2nc3ccccc3s2)o1 [Example 1947] | < 500
Cc1cnn(C)c1-c1nnc(C(=O)N2CCc3[nH]cnc3[C@@H]2c2nc3ccccc3s2)o1 [Example 1948, (R)-(4-(benzo[d]thiazol-2-yl)-6,7-dihydro-1H-imidazo[4,5-c]pyridin-5(4H)-yl)(5-(1,4-dimethyl-1H-pyrazol-5-yl)-1,3,4-oxadiazol-2-yl)methanone] | 1000 to 5000
Cc1nc(C2(O)CC2)oc1C(=O)N1CCc2[nH]cnc2[C@H]1c1nc2c(F)cccc2s1 [Example 1949, (S)-(4-(4-fluorobenzo[d]thiazol-2-yl)-6,7-dihydro-1H-imidazo[4,5-c]pyridin-5(4H)-yl)(2-(1-hydroxycyclopropyl)-4-methyloxazol-5-yl)methanone] | 500 to 1000
Cc1nc(C2(O)CC2)oc1C(=O)N1CCc2[nH]cnc2[C@@H]1c1nc2c(F)cccc2s1 [Example 1950, (R)-(4-(4-fluorobenzo[d]thiazol-2-yl)-6,7-dihydro-1H-imidazo[4,5-c]pyridin-5(4H)-yl)(2-(1-hydroxycyclopropyl)-4-methyloxazol-5-yl)methanone] | > 5000

Compound | AC50 [nM]
CC(C)n1ncc(C(=O)N2CCc3[nH]cnc3[C@H]2c2nc3c(F)cccc3s2)c1Cl [Example 1951] | 500 to 1000
CC(C)n1ncc(C(=O)N2CCc3[nH]cnc3[C@@H]2c2nc3c(F)cccc3s2)c1Cl [Example 1952, (R)-(5-chloro-1-isopropyl-1H-pyrazol-4-yl)(4-(4-fluorobenzo[d]thiazol-2-yl)-6,7-dihydro-1H-imidazo[4,5-c]pyridin-5(4H)-yl)methanone] | 1000 to 5000
CC(C)n1ncc(C(=O)N2CCc3[nH]cnc3[C@H]2c2nc3c(F)cccc3s2)c1Br [Example 1953] | 500 to 1000
CC(C)n1ncc(C(=O)N2CCc3[nH]cnc3[C@@H]2c2nc3c(F)cccc3s2)c1Br [Example 1954, (R)-(5-bromo-1-isopropyl-1H-pyrazol-4-yl)(4-(4-fluorobenzo[d]thiazol-2-yl)-6,7-dihydro-1H-imidazo[4,5-c]pyridin-5(4H)-yl)methanone] | 1000 to 5000
Cn1nc(Cl)nc1C(=O)N1CCc2[nH]cnc2[C@H]1c1nc2c(F)cccc2s1 [Example 1955] | < 500
Cn1nc(Cl)nc1C(=O)N1CCc2[nH]cnc2[C@@H]1c1nc2c(F)cccc2s1 [Example 1956, (R)-(3-chloro-1-methyl-1H-1,2,4-triazol-5-yl)(4-(4-fluorobenzo[d]thiazol-2-yl)-6,7-dihydro-1H-imidazo[4,5-c]pyridin-5(4H)-yl)methanone] | 1000 to 5000
CCn1ncnc1C(=O)N1CCc2[nH]cnc2[C@@H]1c1nc2ccccc2s1 [Example 1957, (R)-(4-(benzo[d]thiazol-2-yl)-6,7-dihydro-1H-imidazo[4,5-c]pyridin-5(4H)-yl)(1-ethyl-1H-1,2,4-triazol-5-yl)methanone] | < 500
CCn1ncnc1C(=O)N1CCc2[nH]cnc2[C@H]1c1nc2ccccc2s1 [Example 1958] | < 500
CCn1ncnc1C(=O)N1CCc2[nH]cnc2[C@H]1c1nc2c(F)cccc2s1 [Example 1959] | < 500
CCn1ncnc1C(=O)N1CCc2[nH]cnc2[C@@H]1c1nc2c(F)cccc2s1 [Example 1960, (R)-(1-ethyl-1H-1,2,4-triazol-5-yl)(4-(4-fluorobenzo[d]thiazol-2-yl)-6,7-dihydro-1H-imidazo[4,5-c]pyridin-5(4H)-yl)methanone] | 1000 to 5000
C[C@H](O)c1nc(C(F)F)c(C(=O)N2CCc3[nH]cnc3[C@H]2c2nc3c(F)cccc3s2)o1 [Example 1961, (4-(difluoromethyl)-2-((S)-1-hydroxyethyl)oxazol-5-yl) ((S)-4-(4-fluorobenzo[d]thiazol-2-yl)-6,7-dihydro-1H-imidazo[4,5-c]pyridin-5(4H)-yl)methanone] | < 500
C[C@H](O)c1nc(C(F)F)c(C(=O)N2CCc3[nH]cnc3[C@@H]2c2nc3c(F)cccc3s2)o1 [Example 1962, (4-(difluoromethyl)-2-((S)-1-hydroxyethyl)oxazol-5-yl)((R)-4-(4-fluorobenzo[d]thiazol-2-yl)-6,7-dihydro-1H-imidazo[4,5-c]pyridin-5(4H)-yl)methanone] | 1000 to 5000
CC(C)(O)c1nc(Cl)c(C(=O)N2CCc3[nH]cnc3[C@H]2c2nc3ccccc3s2)o1 [Example 1963] | < 500
CC(C)(O)c1nc(Cl)c(C(=O)N2CCc3[nH]cnc3[C@@H]2c2nc3ccccc3s2)o1 [Example 1964, (R)-(4-(benzo[d]thiazol-2-yl)-6,7-dihydro-1H-imidazo[4,5-c]pyridin-5(4H)-yl)(4-chloro-2-(2-hydroxypropan-2-yl)oxazol-5-yl)methanone] | 1000 to 5000
O=C(c1nnc(-c2c[nH]nc2C(F)(F)F)o1)N1CCc2[nH]cnc2[C@H]1c1nc2ccccc2s1 [Example 1965] | 500 to 1000
O=C(c1nnc(-c2c[nH]nc2C(F)(F)F)o1)N1CCc2[nH]cnc2[C@@H]1c1nc2ccccc2s1 [Example 1966, (R)-(4-(benzo[d]thiazol-2-yl)-6,7-dihydro-1H-imidazo[4,5-c]pyridin-5(4H)-yl)(5-(3-(trifluoromethyl)-1H-pyrazol-4-yl)-1,3,4-oxadiazol-2-yl)methanone] | 1000 to 5000
O=C(c1cnn(CC(F)(F)F)c1Cl)N1CCc2[nH]cnc2[C@H]1c1nc2c(F)cccc2s1 [Example 1967, (S)-(5-chloro-1-(2,2,2-trifluoroethyl)-1H-pyrazol-4-yl)(4-(4-fluorobenzo[d]thiazol-2-yl)-6,7-dihydro-1H-imidazo[4,5-c]pyridin-5(4H)-yl)methanone] | < 500
